Data taken from PubChem BioAssay (NCI).
Several values for one entry are separate records, joined by “and”; a condition that tells them apart may be missing. Equal entries are not always repeated.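 Interpolation was linear, between the two tested concentrations surrounding the appropriate level; five concentrations were tested over 48 hours in 96-well plates. The concentration for full growth arrest is given as TGI.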

Columns and labels:
Assay in all cases: growth of human tumour cells (NCI), 48 h
[1] = test system: OVCAR-4 ovarian
[2] = test system: A549 NSCLC
[3] = test system: 786-0 renal
[4] = test system: OVCAR-3 ovarian
[5] = test system: UACC-257 melanoma
[6] = test system: SK-MEL-28 melanoma
[7] = test system: SK-OV-3 ovarian
[8] = test system: M14 melanoma
[9] = test system: NCI-H226 lung
[10] = test system: SK-MEL-2 melanoma
[11] = test system: PC-3 prostate
[12] = test system: BT-549 breast

COc1cc2c(c(OC)c1OC)-c1ccc(SC)c(=O)cc1[C@@H](NCc1ccc(F)cc1)CC2
TGI [1]: > 100 µM | TGI [2]: 75 µM and > 100 µM | TGI [3]: 16.8 µM and 25 µM | TGI [4]: < 0.0075 µM | TGI [5]: 44.1 µM and 55.7 µM | TGI [6]: 75 µM

COC(=O)C(=O)C(C(=O)OC)C(=O)C(=O)Nc1c(C)cccc1C (stereo not given)
TGI [1]: > 100 µM | TGI [2]: > 100 µM | TGI [3]: > 100 µM | TGI [7]: > 100 µM | TGI [4]: > 100 µM | TGI [8]: > 100 µM | TGI [9]: > 100 µM | TGI [5]: > 100 µM | TGI [6]: > 100 µM | TGI [10]: > 100 µM

Clc1ccc(Cl)c(N=Nc2cc3c4c(c2)CCN4CCC3)c1
TGI [1]: > 10 µM | TGI [2]: > 10 µM | TGI [3]: > 10 µM | TGI [7]: > 10 µM | TGI [4]: > 10 µM | TGI [8]: > 10 µM | TGI [9]: > 10 µM | TGI [5]: > 10 µM | TGI [11]: > 10 µM | TGI [6]: > 10 µM | TGI [10]: > 10 µM

COC(=O)c1ccc2c(c1)CC1(C2)Cc2cc3c(cc2C1)CCC3
TGI [1]: > 100 µM | TGI [2]: > 100 µM | TGI [3]: > 100 µM | TGI [7]: > 100 µM | TGI [4]: > 100 µM | TGI [8]: > 100 µM | TGI [5]: > 100 µM | TGI [11]: > 100 µM | TGI [6]: > 100 µM | TGI [10]: > 100 µM

CCOC(=O)c1c[nH]c(C(=O)OCC)c1-c1cccn1-c1ccccc1
TGI [2]: > 100 µM | TGI [3]: > 100 µM | TGI [7]: 90.6 µM | TGI [4]: 37.4 µM | TGI [8]: 41.9 µM | TGI [12]: > 100 µM | TGI [9]: 98.8 µM | TGI [5]: > 100 µM | TGI [11]: 82.5 µM | TGI [6]: 79.5 µM | TGI [10]: 35.5 µM

Nc1nc2c(N)cc(C(F)(F)F)cc2nc1-c1ccccc1
TGI [1]: > 100 µM | TGI [2]: > 100 µM | TGI [3]: > 100 µM | TGI [7]: > 100 µM | TGI [4]: > 100 µM | TGI [8]: > 100 µM | TGI [9]: > 100 µM | TGI [5]: > 100 µM | TGI [6]: > 100 µM | TGI [10]: > 100 µM

FC(F)(F)c1ccccc1C1SCC2=Nc3ccccc3CN21 (stereo not given)
TGI [1]: 30.1 µM | TGI [2]: 27.6 µM | TGI [3]: 24.2 µM | TGI [7]: 42 µM | TGI [8]: 24.6 µM | TGI [12]: 44.2 µM | TGI [9]: 26.7 µM | TGI [5]: 36.6 µM | TGI [11]: 27.9 µM | TGI [6]: 58.2 µM

CNC(=O)c1n[nH]n(C2CCCCC2)c1=S
TGI [1]: > 100 µM | TGI [2]: > 100 µM | TGI [3]: > 100 µM | TGI [7]: > 100 µM | TGI [4]: 37 µM | TGI [8]: > 100 µM | TGI [9]: > 100 µM | TGI [5]: > 100 µM | TGI [11]: > 100 µM | TGI [6]: > 100 µM | TGI [10]: > 100 µM

COc1ccc2[nH]c3c(c2c1)[C@H](c1ccccc1)C[C@@H]1C(=O)N(c2ccccc2)C(=O)[C@H]31
TGI [1]: 31 µM | TGI [2]: 35.8 µM | TGI [3]: 35.3 µM | TGI [7]: 50 µM | TGI [4]: 45.6 µM | TGI [8]: > 100 µM | TGI [9]: 57.6 µM | TGI [5]: > 100 µM | TGI [6]: > 100 µM | TGI [10]: > 100 µM

O=C(O)c1nc2ccccc2nc1Nc1ccc(Cl)c(Cl)c1
TGI [2]: > 100 µM | TGI [3]: 63.9 µM | TGI [7]: 88.1 µM | TGI [4]: 37.2 µM | TGI [8]: 82 µM | TGI [12]: 61.4 µM | TGI [9]: > 100 µM | TGI [5]: > 100 µM | TGI [11]: > 100 µM | TGI [6]: 75 µM

CCOC1=C2N=C(C(CC)c3ccccc3F)N=C2C(=O)c2ccccc21 (stereo not given)
TGI [1]: > 100 µM | TGI [2]: > 100 µM | TGI [3]: > 100 µM | TGI [4]: > 100 µM | TGI [8]: > 100 µM | TGI [9]: > 100 µM | TGI [5]: > 100 µM | TGI [6]: > 100 µM | TGI [10]: > 100 µM

CC(C)c1cccc(C(C)C)c1NC(=O)C(=O)Cc1nc2ccc([N+](=O)[O-])cc2[nH]c1=O
TGI [1]: > 100 µM | TGI [2]: > 100 µM | TGI [3]: > 100 µM | TGI [7]: > 100 µM | TGI [4]: > 100 µM | TGI [8]: > 100 µM | TGI [9]: > 100 µM | TGI [5]: > 100 µM | TGI [6]: > 100 µM | TGI [10]: > 100 µM

Cc1ccc(S(=O)c2cccs2)cc1 (stereo not given)
TGI [2]: > 100 µM | TGI [3]: > 100 µM | TGI [4]: > 100 µM | TGI [8]: > 100 µM | TGI [12]: > 100 µM | TGI [9]: > 100 µM | TGI [5]: > 100 µM | TGI [11]: > 100 µM | TGI [6]: > 100 µM

COc1ccc(C2c3cc4c(cc3OC(NNc3ccccc3)C2C)OCO4)cc1 (stereo not given)
TGI [2]: > 100 µM | TGI [3]: 51.8 µM | TGI [7]: > 100 µM | TGI [4]: 39.8 µM | TGI [8]: > 100 µM | TGI [12]: 76.1 µM | TGI [9]: > 100 µM | TGI [5]: 86.3 µM | TGI [11]: > 100 µM | TGI [6]: > 100 µM | TGI [10]: 98.1 µM

N#CC(NNC(=O)Cc1ccccc1)c1cccc(O)c1 (stereo not given)
TGI [1]: > 100 µM | TGI [2]: > 100 µM | TGI [3]: > 100 µM | TGI [7]: > 100 µM | TGI [8]: > 100 µM | TGI [9]: > 100 µM | TGI [5]: > 100 µM | TGI [6]: > 100 µM | TGI [10]: > 100 µM

Clc1ccc(Nc2nnc(CNc3ccc(-c4nnc(Nc5ccc(Cl)cc5)s4)cc3)s2)cc1
TGI [1]: > 100 µM | TGI [2]: > 100 µM | TGI [3]: 75.1 µM | TGI [7]: > 100 µM | TGI [8]: 58.4 µM | TGI [12]: > 100 µM | TGI [9]: > 100 µM | TGI [5]: > 100 µM | TGI [11]: > 100 µM | TGI [6]: > 100 µM | TGI [10]: 67.6 µM

CN(C)CCNc1ccc2ncn3c4ccccc4c(=O)c1c23
TGI [1]: 5 µM | TGI [2]: 5.79 µM | TGI [3]: 13.9 µM | TGI [7]: 16.2 µM | TGI [4]: > 100 µM | TGI [8]: 13.7 µM | TGI [9]: 6.05 µM | TGI [5]: 11.5 µM | TGI [6]: 15.2 µM | TGI [10]: 10.1 µM

CC(C)C1CNC(=O)C2(C=NC(C(C)C)CNC(=O)C3(C=N1)CCCO3)CCCO2 (stereo not given)
TGI [1]: > 10 µM | TGI [2]: > 10 µM | TGI [3]: > 10 µM | TGI [7]: > 10 µM | TGI [4]: > 10 µM | TGI [8]: > 10 µM | TGI [12]: > 10 µM | TGI [5]: > 10 µM | TGI [11]: > 10 µM | TGI [6]: > 10 µM

[N-]=[N+]=Nc1ccccc1-c1ccccc1[N+](=O)[O-]
TGI [1]: > 100 µM | TGI [2]: > 100 µM | TGI [3]: > 100 µM | TGI [7]: > 100 µM | TGI [4]: > 100 µM | TGI [8]: > 100 µM | TGI [12]: > 100 µM | TGI [5]: 71.7 µM | TGI [11]: > 100 µM | TGI [6]: > 100 µM | TGI [10]: > 100 µM

CCOC(=O)C(NC(=O)OCc1ccccc1)C(=O)O (stereo not given)
TGI [1]: > 100 µM | TGI [2]: > 100 µM | TGI [3]: > 100 µM | TGI [4]: > 100 µM | TGI [8]: > 100 µM | TGI [12]: > 100 µM | TGI [9]: > 100 µM | TGI [5]: > 100 µM | TGI [11]: > 100 µM | TGI [6]: > 100 µM | TGI [10]: > 100 µM

CCC(NC(C)c1ccccc1)C(=O)c1ccc(OCc2ccccc2)c(OCc2ccccc2)c1 (stereo not given)
TGI [1]: > 100 µM | TGI [2]: > 100 µM | TGI [3]: > 100 µM | TGI [7]: > 100 µM | TGI [4]: > 100 µM | TGI [8]: > 100 µM | TGI [12]: > 100 µM | TGI [9]: > 100 µM | TGI [11]: > 100 µM | TGI [6]: > 100 µM

COc1cc2ccc3c4ccccc4cnc3c2cc1OC
TGI [1]: > 100 µM | TGI [2]: > 100 µM | TGI [3]: > 100 µM | TGI [7]: > 100 µM | TGI [4]: > 100 µM | TGI [8]: > 100 µM | TGI [9]: > 100 µM | TGI [5]: > 100 µM | TGI [6]: > 100 µM | TGI [10]: > 100 µM
